Calls of active or inactive are those of the source. No cut-off for these calls is given here.
Tests used:
Transcription factor p65 [1] = target: T1, Transcription factor p65 (Homo sapiens, UniProt Q04206); experiment: Inhibition of LPS-induced NF-kappa-B p65 phosphorylation in human THP1 cells at 50 uM preincubated for 3 hrs followed by LPS stimulation for 18 hrs; settings: THP-1
Transcription factor p65 [2] = target: T1, Transcription factor p65; experiment: Inhibition of NF-kappa-B p65 in human THP1 cells assessed reduction in phosphorylated p65 levels at 50 uM preincubated for 3 hrs followed by LPS stimulation after 18 hrs by Western blot analysis; assay type: cell-based; settings: THP-1
Transcription factor p65 [3] = target: T1, Transcription factor p65; experiment: Inhibition of NF-kappa-B p65 in human THP1 cells assessed as suppression of LPS-induced TNFalpha release preincubated for 3 hrs followed by LPS stimulation by ELISA; assay type: cell-based, THP-1

T1 sequence (Q04206 whole entry): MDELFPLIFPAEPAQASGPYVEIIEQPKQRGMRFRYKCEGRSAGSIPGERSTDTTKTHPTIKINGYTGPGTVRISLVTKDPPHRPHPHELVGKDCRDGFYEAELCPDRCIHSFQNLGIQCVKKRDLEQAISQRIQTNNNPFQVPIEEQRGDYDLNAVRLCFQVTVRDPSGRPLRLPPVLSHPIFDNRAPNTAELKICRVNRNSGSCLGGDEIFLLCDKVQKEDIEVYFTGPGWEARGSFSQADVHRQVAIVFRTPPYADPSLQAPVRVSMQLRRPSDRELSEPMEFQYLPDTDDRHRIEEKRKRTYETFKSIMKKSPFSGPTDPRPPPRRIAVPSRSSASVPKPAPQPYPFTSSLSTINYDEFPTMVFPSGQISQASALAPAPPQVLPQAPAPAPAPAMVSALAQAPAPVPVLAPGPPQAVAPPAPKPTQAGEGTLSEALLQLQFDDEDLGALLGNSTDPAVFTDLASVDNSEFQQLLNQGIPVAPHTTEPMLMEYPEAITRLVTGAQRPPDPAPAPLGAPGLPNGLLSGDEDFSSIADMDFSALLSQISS

`O=C1C[C@@H](c2ccc(O)c(O[C@@H]3O[C@H](CO)[C@@H](O)[C@H](O)[C@H]3O)c2)Oc2c1c(O)c([C@H](CCc1ccc(O[C@@H]3O[C@H](CO)[C@@H](O)[C@H](O)[C@H]3O)cc1)c1ccc(O[C@@H]3O[C@H](CO)[C@@H](O)[C@H](O)[C@H]3O)cc1O[C@@H]1O[C@H](CO)[C@@H](O)[C@H](O)[C@H]1O)c(O)c2[C@@H](CCc1ccc(O[C@@H]2O[C@H](CO)[C@@H](O)[C@H](O)[C@H]2O)cc1)c1ccc(O[C@@H]2O[C@H](CO)[C@@H](O)[C@H](O)[C@H]2O)cc1O[C@@H]1O[C@H](CO)[C@@H](O)[C@H](O)[C@H]1O` was tested, and the inhibition (Transcription factor p65 [1]) was “Active”, the inhibition (Transcription factor p65 [2]) was “Active” and the IC50 (Transcription factor p65 [3]) was 19.3 µM.

`O=C1C[C@@H](c2ccc(O)c(O[C@@H]3O[C@H](CO)[C@@H](O)[C@H](O)[C@H]3O)c2)Oc2c1c(O)c([C@H](CCc1ccc(O)cc1)c1ccc(O)cc1O[C@@H]1O[C@H](CO)[C@@H](O)[C@H](O)[C@H]1O)c(O)c2[C@@H](CCc1ccc(O)cc1)c1ccc(O)cc1O[C@@H]1O[C@H](CO)[C@@H](O)[C@H](O)[C@H]1O` was tested, and the inhibition (Transcription factor p65 [1]) was “Active” and the inhibition (Transcription factor p65 [2]) was “Active”.

— ChEMBL document CHEMBL3868586, “Mansoins C-F, Oligomeric Flavonoid Glucosides Isolated from Mansoa hirsuta Fruits with Potential Anti-inflammatory Activity” (J Nat Prod, 2016)
